# In the supplement of paper PMC5579334:
# Tests used:
# STS26T [1] = assay: relative IC50 (inflection point of fitted dose-response curve, CellTox-Green cytotoxicity, 72 h; top asymptote may be below 50%); higher = less potent
# Summary of the method: (§1)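 MPNST cell lines and primary human Schwann cells were incubated 72 h at 37 °C in 384-well plates holding five 10-fold compound dilutions. CellTox-Green was added before seeding at a final 1:1000 dilution and reported fluorescence from DNA released by disrupted cells. Signals were scaled to vehicle and positive-control wells, and cultures failing plate quality control were dropped. Drug sensitivity score and relative IC50 come from four-parameter logistic fits, with IC50 censored at the top concentration.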
# ST8814 [2] = assay: as above
# Summary of the method: as §1
# S462 = assay: relative IC50 (inflection point of fitted dose-response curve, CellTiter-Glo viability, 72 h; top asymptote may be below 50% inhibition); higher = less potent
# Summary of the method: (§2)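 Viability was scored by CellTiter-Glo ATP luminescence, scaled from vehicle to positive-control wells, with duplicates averaged where present. The cells, MPNST lines and primary human Schwann cells at 750–1000 per well, sat 72 h at 37 °C, 5% CO2, in 384-well plates preprinted with each compound at five concentrations in 10-fold steps. Four-parameter logistic fits were run on the data. These fits give drug sensitivity score and relative IC50 censored at the top concentration, and percent inhibition is reported at the top concentration.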
# HSC2 [3] = assay: as above
# Summary of the method: as §2
# HSC1 [4] = assay: as above
# Summary of the method: as §2
# ST8814 [5] = assay: as above
# Summary of the method: as §2
# HS-PSS [6] = assay: relative IC50 (inflection point of fitted dose-response curve, CellTox-Green cytotoxicity, 72 h; top asymptote may be below 50%); higher = less potent
# Summary of the method: as §1
# HSC2 [7] = assay: as above
# Summary of the method: as §1
# HSC1 [8] = assay: as above
# Summary of the method: as §1
# HS-Sch-2 = assay: relative IC50 (inflection point of fitted dose-response curve, CellTiter-Glo viability, 72 h; top asymptote may be below 50% inhibition); higher = less potent
# Summary of the method: as §2
# HS-PSS [9] = assay: as above
# Summary of the method: as §2
# YST-1 = assay: as above
# Summary of the method: as §2
# STS26T [10] = assay: as above
# Summary of the method: as §2
Structure (SMILES),relative IC50 (STS26T [1]) [µM],relative IC50 (ST8814 [2]) [µM],relative IC50 (S462) [µM],relative IC50 (HSC2 [3]) [µM],relative IC50 (HSC1 [4]) [µM],relative IC50 (ST8814 [5]) [µM],relative IC50 (HS-PSS [6]) [µM],relative IC50 (HSC2 [7]) [µM],relative IC50 (HSC1 [8]) [µM],relative IC50 (HS-Sch-2) [µM],relative IC50 (HS-PSS [9]) [µM],relative IC50 (YST-1) [µM],relative IC50 (STS26T [10]) [µM]
Cc1c(C(=O)Nc2ccc(N3C[C@@H](C)O[C@@H](C)C3)nc2)cccc1-c1ccc(OC(F)(F)F)cc1 [Erismodegib],> 10,> 10,> 10,> 10,> 10,> 10,,,,,,,
CCN1CCN(c2ccc(Nc3cc(N(C)C(=O)Nc4c(Cl)c(OC)cc(OC)c4Cl)ncn3)cc2)CC1 [NVP-BGJ398],> 1,> 1,> 1,> 1,> 1,,> 1,> 1,> 1,> 1,> 1,> 1,> 1
COc1nc(N)nc2c1ncn2[C@@H]1O[C@H](CO)[C@@H](O)[C@@H]1O [Nelarabine],> 10,> 10,> 10,> 10,> 10,> 10,> 10,,> 10,> 10,> 10,> 10,> 10
COc1ccc(C2=N[C@@H](c3ccc(Cl)cc3)[C@@H](c3ccc(Cl)cc3)N2C(=O)N2CCNC(=O)C2)c(OC(C)C)c1 [Nutlin-3],> 10,,> 10,1.22,1.49,2.05,> 10,> 10,> 10,> 10,,1.41,
O=C(c1cc(Cc2n[nH]c(=O)c3ccccc23)ccc1F)N1CCN(C(=O)C2CC2)CC1 [Olaparib],3.43,3.36,2,1.34,1.67,3.54,> 10,,> 10,1.36,,0.426,2.33
Cc1ccc(Nc2nccc(N(C)c3ccc4c(C)n(C)nc4c3)n2)cc1S(N)(=O)=O [Pazopanib],> 10,> 10,> 10,,,> 10,> 10,> 10,> 10,,0.605,> 10,> 10
Nc1cccc2c1C(=O)N(C1CCC(=O)NC1=O)C2=O (centres undefined) [Pomalidomide],> 10,> 10,,> 10,> 10,> 10,> 10,> 10,> 10,> 10,> 10,> 10,> 10
COCC1(CO)C(=O)C2CCN1CC2 (centres undefined) [Prima-1 Met],> 10,> 10,,2.14,0.572,> 10,,> 10,> 10,,,,
CNC(=O)c1ccc(N2C(=S)N(c3ccc(C#N)c(C(F)(F)F)c3)C(=O)C23CCC3)cc1F [RD162],> 10,> 10,> 10,> 10,,,> 10,> 10,> 10,> 10,> 10,> 10,> 10
CO[C@H]1C[C@@H]2CC[C@@H](C)[C@@](O)(O2)C(=O)C(=O)N2CCCC[C@H]2C(=O)O[C@H]([C@H](C)C[C@@H]2CC[C@@H](O)[C@H](OC)C2)CC(=O)[C@H](C)/C=C(\C)[C@@H](O)[C@@H](OC)C(=O)[C@H](C)C[C@H](C)/C=C/C=C/C=C/1C [Sirolimus],> 0.1,> 0.1,> 0.1,,,,> 0.1,> 0.1,> 0.1,0.00638,0.00371,0.00609,0.0217
CCN(CC)CCNC(=O)c1c(C)[nH]c(/C=C2\C(=O)Nc3ccc(F)cc32)c1C [Sunitinib],> 1,> 1,,> 1,> 1,,> 1,> 1,> 1,> 1,,> 1,> 1
CC(C)C[C@@H](C(=O)N[C@H](C(=O)OC1CCCC1)c1ccccc1)[C@H](O)C(=O)NO [Tosedostat],0.0253,,0.424,0.0761,0.138,1.24,> 10,> 10,> 10,0.258,3.27,0.222,0.0814
CC1=C(/C=C/C(C)=C/C=C/C(C)=C/C(=O)O)C(C)(C)CCC1 [Tretinoin],> 10,> 10,> 10,,0.361,,> 10,> 10,> 10,> 10,> 10,> 10,
COc1cc2/c(=N/c3ccc(Br)cc3F)nc[nH]c2cc1OCC1CCN(C)CC1 [Vandetanib],> 1,,> 1,> 1,> 1,> 1,,> 1,> 1,> 1,0.0865,> 1,
CCc1c(C(=O)C(N)=O)c2c(OCC(=O)O)cccc2n1Cc1ccccc1 [Varespladib],> 10,> 10,,> 10,,> 10,> 10,> 10,> 10,> 10,> 10,> 10,> 10
